Experimental data as given in ChEMBL document CHEMBL1212923, “Synthesis and in vivo evaluation of phenethylpiperazine amides: selective 5-hydroxytryptamine(2A) receptor antagonists for the treatment of insomnia” (J Med Chem, 2010).
Calls of active or inactive are those of the source. The calls are words filed in the database; no cut-off is given here.

Tested on: Rattus norvegicus
Test: Effect on behavioral activity in Sprague-Dawley rat assessed as increase in deep sleep at 0.1 mg/kg, po after 3 to 4 hrs
Format: functional, organism-based
Parameters: dose 0.1 mg/kg
Conditions: not given

SMILES	Activity
Cn1cc(Br)c(C(=O)N2CCN(CC(=O)c3ccc(F)cc3)CC2)n1	Active

Tested on: not listed separately
Test: Ratio of drug level in brain to plasma in Sprague-Dawley rat at 3 mg/kg, po after 0.75 hrs
Format: ADME, organism-based
Parameters: dose 3 mg/kg, route oral
Conditions: not given

SMILES	Kp at 0.75 h
Cn1cc(Br)c(C(=O)N2CCN(CCc3ccc(F)cc3)CC2)n1	2.02
COc1ccc(NC(=O)Nc2ccc(F)cc2F)cc1-c1c(Br)cnn1C [NELOTANSERIN]	0.65

Tested on: Rattus norvegicus
Test: Inhibition of DOI-induced hypolocomotion in Sprague-Dawley rat at 3 mg/kg, po administered 25 mins before DOI challenge measured after 10 mins
Format: functional
Conditions: not given

SMILES	inhibition in vivo at 3 mg/kg
CCn1cc(Cl)c(C(=O)N2CCN(CC(=O)c3ccc(F)cc3)CC2)n1	54%
Cc1c(Br)c(C(=O)N2CCN(CC(=O)c3ccc(F)cc3)CC2)nn1C	65%
Cn1cc(Br)c(C(=O)N2CCN(CC(=O)c3ccc(F)cc3)CC2)n1	65%

Molecular target: Cytochrome P450 2D6 (Homo sapiens, UniProt P10635)
Sequence (P10635 whole entry): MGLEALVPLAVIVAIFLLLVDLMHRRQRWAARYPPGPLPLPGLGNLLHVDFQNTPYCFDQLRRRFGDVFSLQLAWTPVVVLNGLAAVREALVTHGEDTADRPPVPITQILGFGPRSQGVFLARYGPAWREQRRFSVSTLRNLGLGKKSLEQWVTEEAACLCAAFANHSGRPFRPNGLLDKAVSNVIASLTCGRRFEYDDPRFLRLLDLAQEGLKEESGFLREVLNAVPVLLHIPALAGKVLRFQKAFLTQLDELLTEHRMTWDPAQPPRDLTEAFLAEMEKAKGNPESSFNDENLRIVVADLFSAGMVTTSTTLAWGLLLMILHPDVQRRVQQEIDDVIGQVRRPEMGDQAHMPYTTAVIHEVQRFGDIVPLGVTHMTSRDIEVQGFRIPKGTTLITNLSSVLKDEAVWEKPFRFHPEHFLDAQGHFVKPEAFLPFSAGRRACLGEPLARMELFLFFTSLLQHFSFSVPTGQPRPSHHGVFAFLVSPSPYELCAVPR
Test: Inhibition of CYP2D6 in human liver microsomes
Format: ADME, Microsome
Conditions: not given

SMILES	inhibition (INH)
Cn1cc(Br)c(C(=O)N2CCN(CC(=O)c3ccc(F)cc3)CC2)n1	Not Active

Tested on: not listed separately
Test: Oral bioavailability in Sprague-Dawley rat at 10 mg/kg relative to 2 mg/kg, iv dose
Format: ADME, organism-based
Conditions: in vivo

SMILES	bioavailability
Cn1cc(Br)c(C(=O)N2CCN(CCc3ccc(F)cc3)CC2)n1	9%
Cn1cc(Br)c(C(=O)N2CCN(CC(=O)c3ccc(F)cc3)CC2)n1	59%

Molecular target: hERG (KCNH2) (Homo sapiens, UniProt Q12809)
Sequence (Q12809 whole entry): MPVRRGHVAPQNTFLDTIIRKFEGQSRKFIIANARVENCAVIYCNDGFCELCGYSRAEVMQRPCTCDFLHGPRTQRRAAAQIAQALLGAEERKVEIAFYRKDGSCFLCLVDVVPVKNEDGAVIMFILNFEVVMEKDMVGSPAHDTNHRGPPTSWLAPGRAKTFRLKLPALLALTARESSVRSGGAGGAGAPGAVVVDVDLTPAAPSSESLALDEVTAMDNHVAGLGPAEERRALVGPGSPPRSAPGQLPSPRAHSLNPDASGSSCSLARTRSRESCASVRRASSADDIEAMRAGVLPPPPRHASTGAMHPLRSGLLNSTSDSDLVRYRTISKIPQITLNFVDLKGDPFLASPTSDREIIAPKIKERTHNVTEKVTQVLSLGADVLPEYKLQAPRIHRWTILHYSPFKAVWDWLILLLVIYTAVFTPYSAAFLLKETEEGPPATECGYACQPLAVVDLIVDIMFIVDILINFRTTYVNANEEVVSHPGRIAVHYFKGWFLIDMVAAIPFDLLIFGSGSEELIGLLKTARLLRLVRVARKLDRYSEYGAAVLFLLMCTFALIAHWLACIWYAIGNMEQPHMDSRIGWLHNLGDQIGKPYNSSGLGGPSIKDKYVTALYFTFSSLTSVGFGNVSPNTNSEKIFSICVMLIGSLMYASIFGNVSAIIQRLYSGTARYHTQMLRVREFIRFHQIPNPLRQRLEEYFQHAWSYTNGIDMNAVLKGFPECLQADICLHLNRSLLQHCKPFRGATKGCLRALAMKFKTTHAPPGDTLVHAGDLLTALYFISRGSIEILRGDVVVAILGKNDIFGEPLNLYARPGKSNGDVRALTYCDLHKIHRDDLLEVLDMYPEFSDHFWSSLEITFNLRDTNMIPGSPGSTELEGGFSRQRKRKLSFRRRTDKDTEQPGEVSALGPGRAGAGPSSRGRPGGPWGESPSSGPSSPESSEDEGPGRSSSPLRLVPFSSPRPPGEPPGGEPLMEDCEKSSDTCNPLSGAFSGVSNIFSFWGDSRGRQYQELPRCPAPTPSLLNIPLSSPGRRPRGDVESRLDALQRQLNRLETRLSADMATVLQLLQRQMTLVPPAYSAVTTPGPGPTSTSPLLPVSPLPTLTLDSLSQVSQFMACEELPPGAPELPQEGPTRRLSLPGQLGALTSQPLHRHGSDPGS
Test: Inhibition of human ERG at 3 uM by patch clamp electrophysiology assay
Conditions: not given

SMILES	inhibition at 3 µM
Cn1cc(Br)c(C(=O)N2CCN(CCc3ccc(F)cc3F)CC2)n1	80%
Cn1cc(Br)c(C(=O)N2CCN(CCc3ccc(F)cc3)CC2)n1	79%
Cc1c(Br)c(C(=O)N2CCN(CC(=O)c3ccc(F)cc3)CC2)nn1C	15%

Molecular target: 5-hydroxytryptamine receptor 2A (Homo sapiens, UniProt P28223)
Sequence (P28223 whole entry): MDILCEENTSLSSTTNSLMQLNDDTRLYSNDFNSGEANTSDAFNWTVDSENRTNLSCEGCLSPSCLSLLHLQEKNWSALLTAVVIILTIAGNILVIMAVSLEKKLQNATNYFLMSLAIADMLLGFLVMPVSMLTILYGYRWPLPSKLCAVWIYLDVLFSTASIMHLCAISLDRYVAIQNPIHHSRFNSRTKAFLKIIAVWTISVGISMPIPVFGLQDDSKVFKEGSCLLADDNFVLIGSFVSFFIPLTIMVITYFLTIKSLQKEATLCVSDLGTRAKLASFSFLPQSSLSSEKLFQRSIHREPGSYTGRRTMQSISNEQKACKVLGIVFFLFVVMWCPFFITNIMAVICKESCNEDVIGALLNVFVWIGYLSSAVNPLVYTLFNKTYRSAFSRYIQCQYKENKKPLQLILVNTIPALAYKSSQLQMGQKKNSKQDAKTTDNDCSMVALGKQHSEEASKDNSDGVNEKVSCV
Test: biochemical
Conditions: not given

SMILES	Ki
Cn1cc(I)c(C(=O)N2CCN(CC(=O)c3ccc(F)cc3)CC2)n1	4.5 nM
Cn1cc(Br)c(C(=O)N2CCN(CCc3ccc(F)cc3F)CC2)n1	1.1 nM
CCn1cc(Cl)c(C(=O)N2CCN(CC(=O)c3ccc(F)cc3)CC2)n1	2.6 nM
Cn1cc(Br)c(C(=O)N2CCN(CCc3ccc(F)cc3)CC2)n1	3.6 nM
Cc1c(Br)c(C(=O)N2CCN(CC(=O)c3ccc(F)cc3)CC2)nn1C	4.6 nM
COc1ccc(NC(=O)Nc2ccc(F)cc2F)cc1-c1c(Br)cnn1C [NELOTANSERIN]	0.51 nM

Tested on: not listed separately
Test: Cmax in Sprague-Dawley rat at 10 mg/kg, po
Format: ADME, organism-based
Parameters: dose 10 mg/kg, route oral
Conditions: in vivo

SMILES	Cmax
Cn1cc(Br)c(C(=O)N2CCN(CCc3ccc(F)cc3)CC2)n1	48 ng/mL
Cn1cc(Br)c(C(=O)N2CCN(CC(=O)c3ccc(F)cc3)CC2)n1	1260 ng/mL

Tested on: not listed separately
Test: Drug level in Sprague-Dawley rat brain at 0.3 mg/kg, po after 0.75 hrs
Format: ADME, organism-based
Parameters: dose 0.3 mg/kg, route oral
Conditions: read-out: Drug uptake

SMILES	concentration at 0.75 h
Cn1cc(Br)c(C(=O)N2CCN(CC(=O)c3ccc(F)cc3)CC2)n1	20.8 ng/mL

Tested on: Rattus norvegicus
Test: Effect on behavioral activity in po dosed Sprague-Dawley rat assessed as increase in sleep consolidation after 5 hrs
Format: functional, organism-based
Conditions: not given

SMILES	Activity
Cn1cc(Br)c(C(=O)N2CCN(CC(=O)c3ccc(F)cc3)CC2)n1	Dose-dependent effect

Tested on: not listed separately
Test: Drug level in Sprague-Dawley rat plasma at 0.3 mg/kg, po after 0.75 hrs
Format: ADME, organism-based
Parameters: dose 0.3 mg/kg, route oral
Conditions: read-out: Drug uptake

SMILES	concentration at 0.75 h
Cn1cc(Br)c(C(=O)N2CCN(CC(=O)c3ccc(F)cc3)CC2)n1	17.8 ng/mL

Tested on: not listed separately
Test: AUClast in Sprague-Dawley rat at 10 mg/kg, po
Format: ADME, organism-based
Parameters: time 0 - last, dose 10 mg/kg, route oral
Conditions: plasma

SMILES	AUC(0-t)
Cn1cc(Br)c(C(=O)N2CCN(CCc3ccc(F)cc3)CC2)n1	91 ng·h/mL
Cn1cc(Br)c(C(=O)N2CCN(CC(=O)c3ccc(F)cc3)CC2)n1	1450 ng·h/mL

Tested on: not listed separately
Test: Drug level in Sprague-Dawley rat brain at 3 mg/kg, po after 0.75 hrs
Format: ADME, organism-based
Parameters: dose 3 mg/kg, route oral
Conditions: read-out: Drug uptake

SMILES	concentration at 0.75 h
Cn1cc(Br)c(C(=O)N2CCN(CCc3ccc(F)cc3)CC2)n1	16.8 ng/mL
COc1ccc(NC(=O)Nc2ccc(F)cc2F)cc1-c1c(Br)cnn1C [NELOTANSERIN]	320 ng/mL

Molecular target: Cytochrome P450 2C19 (Homo sapiens, UniProt P33261)
Sequence (P33261 whole entry): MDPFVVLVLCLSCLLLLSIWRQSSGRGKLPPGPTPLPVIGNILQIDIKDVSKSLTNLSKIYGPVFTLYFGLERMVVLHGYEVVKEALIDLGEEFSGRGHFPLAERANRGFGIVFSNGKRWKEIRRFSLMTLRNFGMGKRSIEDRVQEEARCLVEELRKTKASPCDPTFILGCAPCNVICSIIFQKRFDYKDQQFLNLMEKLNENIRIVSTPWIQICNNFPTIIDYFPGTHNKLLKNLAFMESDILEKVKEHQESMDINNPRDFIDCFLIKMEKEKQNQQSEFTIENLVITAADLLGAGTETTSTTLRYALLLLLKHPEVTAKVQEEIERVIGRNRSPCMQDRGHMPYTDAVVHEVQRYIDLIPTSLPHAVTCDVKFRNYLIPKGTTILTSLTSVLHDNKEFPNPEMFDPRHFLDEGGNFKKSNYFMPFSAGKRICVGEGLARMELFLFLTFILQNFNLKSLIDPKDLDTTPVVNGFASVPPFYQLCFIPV
Test: Inhibition of CYP2C19 in human liver microsomes
Format: ADME, Microsome
Conditions: not given

SMILES	inhibition (INH)
Cn1cc(Br)c(C(=O)N2CCN(CC(=O)c3ccc(F)cc3)CC2)n1	Not Active

Tested on: not listed separately
Test: Half life in Sprague-Dawley rat at 10 mg/kg, po
Format: ADME, organism-based
Parameters: dose 10 mg/kg, route oral
Conditions: in vivo

SMILES	half-life
Cn1cc(Br)c(C(=O)N2CCN(CCc3ccc(F)cc3)CC2)n1	84 min
Cn1cc(Br)c(C(=O)N2CCN(CC(=O)c3ccc(F)cc3)CC2)n1	126 min

Tested on: Rattus norvegicus
Test: Hepatic blood flow in Sprague-Dawley rat at 10 mg/kg, po
Format: ADME, organism-based, Liver
Parameters: dose 10 mg/kg, route oral
Conditions: in vivo

SMILES	LBF
Cn1cc(Br)c(C(=O)N2CCN(CCc3ccc(F)cc3)CC2)n1	220%

Tested on: not listed separately
Test: Half life in rat liver microsomes
Format: ADME, Microsome
Conditions: not given

SMILES	half-life
Cn1cc(Br)c(C(=O)N2CCN(CCc3ccc(F)cc3F)CC2)n1	9 min
Cn1cc(Br)c(C(=O)N2CCN(CCc3ccc(F)cc3)CC2)n1	14 min
Cc1c(Br)c(C(=O)N2CCN(CC(=O)c3ccc(F)cc3)CC2)nn1C	29 min
Cn1cc(Br)c(C(=O)N2CCN(CC(=O)c3ccc(F)cc3)CC2)n1	> 60 min

Molecular target: Cytochrome P450 2C9 (Homo sapiens, UniProt P11712)
Sequence (P11712 whole entry): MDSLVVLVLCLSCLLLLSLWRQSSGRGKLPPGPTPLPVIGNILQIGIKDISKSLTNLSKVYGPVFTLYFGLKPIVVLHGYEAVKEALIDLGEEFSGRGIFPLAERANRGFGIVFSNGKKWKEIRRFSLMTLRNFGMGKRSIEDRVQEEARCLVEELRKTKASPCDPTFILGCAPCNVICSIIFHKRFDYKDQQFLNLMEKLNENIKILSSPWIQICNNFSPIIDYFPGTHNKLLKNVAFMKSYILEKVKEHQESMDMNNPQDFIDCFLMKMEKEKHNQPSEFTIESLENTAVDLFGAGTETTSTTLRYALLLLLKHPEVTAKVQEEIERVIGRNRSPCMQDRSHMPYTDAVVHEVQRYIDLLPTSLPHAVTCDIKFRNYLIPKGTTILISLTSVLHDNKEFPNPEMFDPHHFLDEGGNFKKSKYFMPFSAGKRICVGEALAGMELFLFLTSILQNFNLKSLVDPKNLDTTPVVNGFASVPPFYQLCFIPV
Test: Inhibition of CYP2C9 in human liver microsomes
Format: ADME, Microsome
Conditions: not given

SMILES	inhibition (INH)
Cn1cc(Br)c(C(=O)N2CCN(CC(=O)c3ccc(F)cc3)CC2)n1	Not Active

Tested on: not listed separately
Test: Total clearance in Sprague-Dawley rat at 2 mg/kg, iv
Format: ADME, organism-based
Parameters: dose 2 mg/kg, route intravenous
Conditions: in vivo

SMILES	clearance
Cn1cc(Br)c(C(=O)N2CCN(CCc3ccc(F)cc3)CC2)n1	155 mL/min/kg
Cn1cc(Br)c(C(=O)N2CCN(CC(=O)c3ccc(F)cc3)CC2)n1	66.7 mL/min/kg

Molecular target: T1, Cytochrome P450 1A2 (Homo sapiens, UniProt P05177)
T1 sequence (P05177 whole entry): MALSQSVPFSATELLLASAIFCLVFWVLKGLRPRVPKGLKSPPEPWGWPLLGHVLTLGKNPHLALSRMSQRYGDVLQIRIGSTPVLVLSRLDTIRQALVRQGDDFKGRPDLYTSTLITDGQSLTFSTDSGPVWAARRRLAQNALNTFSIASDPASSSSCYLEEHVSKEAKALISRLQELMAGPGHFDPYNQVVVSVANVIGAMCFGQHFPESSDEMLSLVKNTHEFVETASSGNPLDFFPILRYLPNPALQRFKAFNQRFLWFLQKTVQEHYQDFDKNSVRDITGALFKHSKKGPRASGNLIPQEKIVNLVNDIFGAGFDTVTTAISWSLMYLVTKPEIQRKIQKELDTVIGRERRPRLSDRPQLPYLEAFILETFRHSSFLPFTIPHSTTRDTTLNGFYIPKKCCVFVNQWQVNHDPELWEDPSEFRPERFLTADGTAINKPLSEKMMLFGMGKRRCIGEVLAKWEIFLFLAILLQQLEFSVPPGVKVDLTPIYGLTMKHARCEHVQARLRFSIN
Test: Inhibition of CYP1A2 in human liver microsomes
Format: ADME, Microsome
Conditions: not given

SMILES	inhibition (INH)
Cn1cc(Br)c(C(=O)N2CCN(CC(=O)c3ccc(F)cc3)CC2)n1	Not Active

Tested on: Rattus norvegicus
Test: Inhibition of DOI-induced hypolocomotion in Sprague-Dawley rat at 1 mg/kg, po administered 25 mins before DOI challenge measured after 10 mins
Format: functional
Conditions: not given

SMILES	inhibition in vivo at 1 mg/kg
Cc1c(Br)c(C(=O)N2CCN(CC(=O)c3ccc(F)cc3)CC2)nn1C	22%
Cn1cc(Br)c(C(=O)N2CCN(CC(=O)c3ccc(F)cc3)CC2)n1	75%

Tested on: Rattus norvegicus
Test: Volume of distribution at steady state in Sprague-Dawley rat at 10 mg/kg, po
Format: ADME, organism-based
Parameters: dose 10 mg/kg, route oral
Conditions: in vivo

SMILES	Vdss
Cn1cc(Br)c(C(=O)N2CCN(CCc3ccc(F)cc3)CC2)n1	8.1 L/kg
Cn1cc(Br)c(C(=O)N2CCN(CC(=O)c3ccc(F)cc3)CC2)n1	1.5 L/kg

Molecular target: T2, 5-hydroxytryptamine receptor 2C (Homo sapiens, UniProt P28335)
T2 sequence (P28335 whole entry): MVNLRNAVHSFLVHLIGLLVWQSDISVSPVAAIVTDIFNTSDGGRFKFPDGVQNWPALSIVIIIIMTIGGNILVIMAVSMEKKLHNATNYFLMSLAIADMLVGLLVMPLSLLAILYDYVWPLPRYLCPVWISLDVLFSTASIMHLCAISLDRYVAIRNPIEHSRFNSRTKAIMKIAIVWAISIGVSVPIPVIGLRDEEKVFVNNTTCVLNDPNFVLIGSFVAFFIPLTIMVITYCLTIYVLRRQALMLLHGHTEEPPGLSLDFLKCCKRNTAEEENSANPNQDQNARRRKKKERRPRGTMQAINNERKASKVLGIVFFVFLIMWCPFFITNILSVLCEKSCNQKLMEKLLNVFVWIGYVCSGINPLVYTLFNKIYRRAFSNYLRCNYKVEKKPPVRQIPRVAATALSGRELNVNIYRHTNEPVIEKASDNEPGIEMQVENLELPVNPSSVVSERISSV
Test: not given
Format: cell-based, HEK293
Conditions: not given

SMILES	Ki
Cn1cc(I)c(C(=O)N2CCN(CC(=O)c3ccc(F)cc3)CC2)n1	3870 nM
Cn1cc(Br)c(C(=O)N2CCN(CCc3ccc(F)cc3F)CC2)n1	2820 nM
CCn1cc(Cl)c(C(=O)N2CCN(CC(=O)c3ccc(F)cc3)CC2)n1	> 10000 nM
Cn1cc(Br)c(C(=O)N2CCN(CCc3ccc(F)cc3)CC2)n1	4150 nM
Cc1c(Br)c(C(=O)N2CCN(CC(=O)c3ccc(F)cc3)CC2)nn1C	2930 nM
COc1ccc(NC(=O)Nc2ccc(F)cc2F)cc1-c1c(Br)cnn1C [NELOTANSERIN]	110 nM
Cn1cc(Br)c(C(=O)N2CCN(CC(=O)c3ccc(F)cc3)CC2)n1	2120 nM

Tested on: Rattus norvegicus
Test: Inhibition of DOI-induced hypolocomotion in po dosed Sprague-Dawley rat administered 25 mins before DOI challenge measured after 10 mins
Format: functional, organism-based
Conditions: not given

SMILES	EC50
Cn1cc(Br)c(C(=O)N2CCN(CCc3ccc(F)cc3)CC2)n1	3 mg/kg

Same assay, conditions: Rattus norvegicus, Sprague-Dawley, po

SMILES	ED50
Cn1cc(Br)c(C(=O)N2CCN(CC(=O)c3ccc(F)cc3)CC2)n1	0.3 mg/kg

Molecular target: Cytochrome P450 3A4 (Homo sapiens, UniProt P08684)
Sequence (P08684 whole entry): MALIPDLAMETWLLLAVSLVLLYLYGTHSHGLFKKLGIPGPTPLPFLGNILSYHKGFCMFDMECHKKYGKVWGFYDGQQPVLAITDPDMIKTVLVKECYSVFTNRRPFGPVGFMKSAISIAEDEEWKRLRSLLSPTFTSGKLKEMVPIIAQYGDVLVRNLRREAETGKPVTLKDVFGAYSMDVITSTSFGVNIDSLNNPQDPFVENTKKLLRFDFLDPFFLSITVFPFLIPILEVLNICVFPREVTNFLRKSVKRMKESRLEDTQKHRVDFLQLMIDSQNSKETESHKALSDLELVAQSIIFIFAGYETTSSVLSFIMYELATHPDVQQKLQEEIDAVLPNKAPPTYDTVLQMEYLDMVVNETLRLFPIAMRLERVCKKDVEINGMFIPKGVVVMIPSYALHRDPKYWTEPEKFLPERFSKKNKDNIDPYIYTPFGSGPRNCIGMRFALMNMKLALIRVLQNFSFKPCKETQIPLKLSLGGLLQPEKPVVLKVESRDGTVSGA
Test: Inhibition of CYP3A4 in human liver microsomes
Format: ADME, Microsome
Conditions: not given

SMILES	inhibition (INH)
Cn1cc(Br)c(C(=O)N2CCN(CC(=O)c3ccc(F)cc3)CC2)n1	Not Active

Tested on: Rattus norvegicus
Test: Effect on behavioral activity in Sprague-Dawley rat assessed as increase in deep sleep at 0.1 mg/kg, po after 1 hr
Format: functional, organism-based
Parameters: dose 0.1 mg/kg
Conditions: not given

SMILES	Activity
Cn1cc(Br)c(C(=O)N2CCN(CC(=O)c3ccc(F)cc3)CC2)n1	Active

Tested on: not listed separately
Test: Drug level in Sprague-Dawley rat plasma at 3 mg/kg, po after 0.75 hrs
Format: ADME, organism-based
Parameters: dose 3 mg/kg, route oral
Conditions: read-out: Drug uptake

SMILES	concentration at 0.75 h
Cn1cc(Br)c(C(=O)N2CCN(CCc3ccc(F)cc3)CC2)n1	8.3 ng/mL
COc1ccc(NC(=O)Nc2ccc(F)cc2F)cc1-c1c(Br)cnn1C [NELOTANSERIN]	488 ng/mL
